Test results taken from patent US20090048194A1, “Vagal Afferent Neurons as Targets for Treatment” (Janssen Pharmaceutica N.V., priority 2005, published 2009).

Columns and labels:
sham nodose neurons = assay: Patch clamp recording of octreotide on dissociated sham nodose neurons; assay type: cell-based, Balb/c mice; details: for effect on number of action potentials at 2× rheobase: sham nodose neurons
Method: (§1) Balb/c mice were injected intraperitoneally with the retrograde labelling agent cholera toxin B 488 3-7 days prior to experiments. Mice were then anaesthetized with ketamine/xylazine, the spinal cord removed and DRG neurons isolated (T10-T13) for electrophysiological recordings 18-24 hours after their dissociation and incubation, and mounted on the stage of an inverted microscope (Leica DMIRE2)) for both bright-field and fluorescence observation. Cholera toxin labelled neurons were identified by their green fluorescence under the N3 filter system (Leica). Whole cell currents and voltage clamp experiments were performed by using MultiClamp 7A amplifier and digitized with a DigiData 1322A converter (Axon Instruments). Stimulation and data acquisition were obtained by the pClamp 9 program (Axon Instruments). Signals were sampled at 10 kHz or 20 kHz, and low-pass filtered at 4 KHz. The series resistance was compensated. Neurons were excluded from analysis if the seal resistance or access resistance was unstable, or if they fired spontaneous action potentials.
(§2) Borosilicate glass (Harvard) was pulled with a P97 micropipette puller (Sutter, Calif.), and fire polished by a M 200 microforge (World Precision Instrument) to a tip resistance of 5-10 MΩ. A silver-silver chloride pellet (world Precision Instrument) was placed in the recording dish as the reference electrode. The normal extracellular Kreb's solution contained (in mM): NaCl 118.0, KCl 4.7, NaH2PO4 1.0, NaHCO3 25.0, MgSO4 1.2, CaCl2 2.5, D-Glucose 11.1, with pH adjusted to 7.3 by using NaOH. The normal intracellular solution contained (in mM): HEPES 10.0, KCl 130.0, MgCl2 1.0, CaCl2 1.0, EGTA 2.0, K2ATP 2, Na3GTP 0.2, titrated with KOH to pH 7.25. The extracellular solution for isolating TTX-resistance Na currents composed of (in mM): NaCl 145.0, KCl 4.8, HEPES 10.0, MgCl2 1.0, CaCl2 2.5, D-glucose 11.1, TTX 0.0003, CdCl 0.5, 4-AP 1.0, TEA-Cl 5.0, CsCl 2.0, pH adjusted to 7.3 by using NaOH, and the corresponding intracellular solution was (in mM): EPES 10.0, CsCl 130.0, MgCl2 1.0, CaCl2 1.0, EGTA 2.0, K2ATP 2.0, Na3GTP 0.2, pH adjusted to 7.25 by using CsOH. All experiments were performed at temperature of 30° C.-33° C.
(§3) Data were analyzed by using pClamp 9 software (Axon Instruments). Neurons were recorded in both current-clamp and voltage-clamp configurations. Voltage clamp recordings were used to generate current-voltage relationships for cells. Current clamp recordings were used to determine the rheobase for action potential firing of neurons. The number of action potentials elicited at 2× rheobase was subsequently assessed in current clamp mode.
(§4) Nodose neurons were dissociated and cultured in preparation for patch clamp experiments as has been described elsewhere. These nodose neurons were either obtained from Balb/c mice 21 days after infection with Nb or from sham mice, thus enabling a comparison of the effects of octreotide on both sham and Nb-infected nodose neurons.
(§5) Octreotide (1 μM) was applied to individual neurons via a fast perfusion system. Octreotide's effects were recorded on the cell's resting membrane potential (RMP) and the number of action potentials fired at 2× rheobase of each neuron.

[1] = tested on: Nb-infected nodose neurons; assay: Patch clamp recording of octreotide on dissociated Nb-infected nodose neurons; assay type: cell-based, Balb/c mice; details: for effect on number of action potentials at 2× rheobase: infected nodose neurons
Method: as §1, §2, §3, §4, §5

[2] = octreotide 1 μM, listed as octreotide

C[C@@H](O)[C@@H]1NC(=O)[C@H](CCCCN)NC(=O)[C@@H](Cc2c[nH]c3ccccc23)NC(=O)[C@H](Cc2ccccc2)NC(=O)[C@@H](NC(=O)[C@H](N)Cc2ccccc2)CSSC[C@@H](C(=O)N[C@H](CO)[C@@H](C)O)NC1=O [Octreotide, octreotide]
effect on RMP (sham nodose neurons; sham neurons, octreotide 1 μM): no significant effect
resting membrane potential (RMP) (sham nodose neurons; sham neurons, octreotide 1 μM, n=27): −54.7±2.1 mV
number of action potentials evoked at 2× rheobase (FIG. 23 example) (sham nodose neurons; sham nodose neuron, after 1 μM octreotide, control in Krebs 2): 1 action potential
effect on number of action potentials at 2× rheobase (sham nodose neurons; octreotide 1 μM): reduced the number of action potentials
effect on number of action potentials at 2× rheobase (sham nodose neurons; [2]): reduces the number of action potentials
difference between the effect of octreotide on sham and infected neurons (action potentials at 2× rheobase) ([1]; 1 μM octreotide, sham vs infected, FIG. 24): no significant difference
effect on RMP ([1]; infected neurons, octreotide 1 μM): no significant effect
resting membrane potential (RMP) ([1]; infected neurons, octreotide 1 μM, n=25): −51.7±2.1 mV
number of action potentials evoked at 2× rheobase (FIG. 23 example) ([1]; infected nodose neuron, after 1 μM octreotide, control in Krebs 9): 2 action potentials
effect on number of action potentials at 2× rheobase ([1]; octreotide 1 μM): reduced the number of action potentials
effect on number of action potentials at 2× rheobase [1, 2]: reduces the number of action potentials
